In publication PMC11822212, “High-throughput screening identifies Aurora kinase B as a critical therapeutic target for Merkel cell carcinoma” (Nature Communications, 2025):

Legend:
HEK293T cells = test: qHTS cell viability (CellTiter-Glo, 72 h; primary screen), control cell line; assay type: cell-based, human
MKL-2 cells (VP-MCC) = test: qHTS cell viability (CellTiter-Glo, 72 h; primary and follow-up small molecule screen); assay type: cell-based, human
[1] = system: control cell lines (HACAT, HEK293T, CRL-7250, NIH-3T3); test: qHTS cell viability, control cell lines as a group (mean AUC, Control.avg); assay type: cell-based; conditions: mean AUC of control cell lines
HACAT cells = test: qHTS cell viability (CellTiter-Glo, 72 h; primary screen), control cell line; assay type: cell-based, human
MCC26 cells (VN-MCC) = test: qHTS cell viability (CellTiter-Glo, 72 h; primary and follow-up small molecule screen); assay type: cell-based, human
[2] = system: VN-MCC cell lines (MCC13, MCC26, UISO); test: qHTS cell viability, VN-MCC cell lines as a group (mean AUC, VN.MCC.avg); assay type: cell-based, human; conditions: for VN-MCC_Avg_AUC: mean AUC of VN-MCC cell lines
WAGA cells (VP-MCC) = test: qHTS cell viability (CellTiter-Glo, 72 h; primary and follow-up small molecule screen); assay type: cell-based, human
[3] = system: MCC cell lines (WAGA, MKL-1, MKL-2, MCC13, MCC26, UISO); test: qHTS cell viability, all six MCC cell lines as a group (mean AUC, MCC.avg); assay type: cell-based, human; conditions: mean AUC of six MCC cell lines
UISO cells (VN-MCC) = test: qHTS cell viability (CellTiter-Glo, 72 h; primary and follow-up small molecule screen); assay type: cell-based, human
[4] = system: six MCC cell lines and four control cell lines; test: qHTS cell viability, all 10 cell lines screened; assay type: cell-based
NIH-3T3 cells = test: qHTS cell viability (CellTiter-Glo, 72 h; primary screen), control cell line; assay type: cell-based, mouse
[5] = system: VP-MCC cell lines (WAGA, MKL-1, MKL-2); test: qHTS cell viability, VP-MCC cell lines as a group (mean AUC, VP.MCC.avg); assay type: cell-based, human; conditions: for VP-MCC_Avg_AUC: mean AUC of VP-MCC cell lines
MCC13 cells (VN-MCC) = test: qHTS cell viability (CellTiter-Glo, 72 h; primary and follow-up small molecule screen); assay type: cell-based, human
CRL-7250 cells = test: qHTS cell viability (CellTiter-Glo, 72 h; primary screen), control cell line; assay type: cell-based
MKL-1 cells (VP-MCC) = test: qHTS cell viability (CellTiter-Glo, 72 h; primary and follow-up small molecule screen); assay type: cell-based, human
[6] = MIPE library, 11-point DRC, control cell line, sheet S2E
[7] = MIPE library, 11-point DRC, sheet S2E
[8] = NPC library, qHTS dose-response AUC, HEK293T control
[9] = NPC library, qHTS dose-response AUC, MKL2
[10] = NPC library, qHTS dose-response AUC, HACAT control
[11] = NPC library, qHTS dose-response AUC, MCC26
[12] = NPC library, therapeutic window: Control avg AUC minus VN-MCC avg AUC
[13] = NPC library, qHTS dose-response AUC, WAGA
[14] = NPC library, qHTS dose-response AUC, UISO
[15] = NPC library, therapeutic window: Control avg AUC minus MCC avg AUC
[16] = NPC library, qHTS dose-response AUC, NIH3T3 control
[17] = NPC library, therapeutic window: Control avg AUC minus VP-MCC avg AUC
[18] = NPC library, qHTS dose-response AUC, MCC13
[19] = NPC library, qHTS dose-response AUC, CRL7250 control
[20] = NPC library, qHTS dose-response AUC, MKL1
[21] = NPC library, 8-point DRC, control cell line
[22] = NPC library, 8-point DRC, area under dose-response curve

CC(C)(C)OC(=O)Nc1ccc(-c2cc(C(=O)NCCCCCCC(=O)NO)no2)cc1 [ISOX]
HEK293T_AUC (HEK293T cells; [6]): 382.485 | MKL2_AUC (MKL-2 cells (VP-MCC); [7]): 356.229 | Control_Avg_AUC ([1]; MIPE library, sheet S2E): 405.698 | HACAT_AUC (HACAT cells; [6]): 439.928 | MCC26_AUC (MCC26 cells (VN-MCC); [7]): 447.653 | Control-VN-MCC ([2]; MIPE library, Control AUC minus VN-MCC AUC (therapeutic window), sheet S2E): -20.9846 | VN-MCC_Avg_AUC ([2]; MIPE library, sheet S2E): 426.683 | WAGA_AUC (WAGA cells (VP-MCC); [7]): 354.914 | MCC_Avg_AUC ([3]; MIPE library, sheet S2E): 390.195 | UISO_AUC (UISO cells (VN-MCC); [7]): 418.415 | Control-MCC ([4]; MIPE library, Control AUC minus MCC AUC (therapeutic window), sheet S2E): 15.5032 | NIH3T3_AUC (NIH-3T3 cells; [6]): 388.752 | Control-VP-MCC ([5]; MIPE library, Control AUC minus VP-MCC AUC (therapeutic window), sheet S2E): 51.9911 | VP-MCC_Avg_AUC ([5]; MIPE library, sheet S2E): 353.707 | MCC13_AUC (MCC13 cells (VN-MCC); [7]): 413.98 | CRL7250_AUC (CRL-7250 cells; [6]): 411.627 | MKL1_AUC (MKL-1 cells (VP-MCC); [7]): 349.979

CCOc1ccc2nc(S(N)(=O)=O)sc2c1 [Ethoxzolamide]
HEK293T_AUC (HEK293T cells; [8]): 465.047 | MKL2_AUC (MKL-2 cells (VP-MCC); [9]): 435.522 | Control_Avg_AUC ([1]; NPC library): 474.669 | HACAT_AUC (HACAT cells; [10]): 484.155 | MCC26_AUC (MCC26 cells (VN-MCC); [11]): 444.564 | VN-MCC_Avg_AUC ([2]; NPC library): 445.807 | Control-VN-MCC [2, 12]: 28.8613 | WAGA_AUC (WAGA cells (VP-MCC); [13]): 399.58 | MCC_Avg_AUC ([3]; NPC library): 428.559 | UISO_AUC (UISO cells (VN-MCC); [14]): 429.085 | Control-MCC [4, 15]: 46.11 | NIH3T3_AUC (NIH-3T3 cells; [16]): 462.958 | VP-MCC_Avg_AUC ([5]; NPC library): 411.31 | Control-VP-MCC [5, 17]: 63.3587 | MCC13_AUC (MCC13 cells (VN-MCC); [18]): 463.773 | CRL7250_AUC (CRL-7250 cells; [19]): 486.514 | MKL1_AUC (MKL-1 cells (VP-MCC); [20]): 398.827

COc1cc(/C=C2\CCC/C(=C\c3ccc(O)c(OC)c3)C2=O)ccc1O [Cyclovalone]
HEK293T_AUC (HEK293T cells; [8]): 422.832 | MKL2_AUC (MKL-2 cells (VP-MCC); [9]): 366.589 | Area under the dose-response curve (AUC) MKL-2 Replicate 1 (MKL-2 cells (VP-MCC); follow-up screen, MKL-2, replicate 1): 366.1 | Area under the dose-response curve (AUC) MKL-2 Replicate 2 (MKL-2 cells (VP-MCC); follow-up screen, MKL-2, replicate 2): 391.5 | Area under the dose-response curve (AUC) MKL-2 Replicate 3 (MKL-2 cells (VP-MCC); follow-up screen, MKL-2, replicate 3): 417.0 | Control_Avg_AUC ([1]; NPC library): 441.636 | HACAT_AUC (HACAT cells; [10]): 441.291 | MCC26_AUC (MCC26 cells (VN-MCC); [11]): 456.812 | Area under the dose-response curve (AUC) MCC26 Replicate 1 (MCC26 cells (VN-MCC); follow-up screen, MCC26, replicate 1): 446.8 | Area under the dose-response curve (AUC) MCC26 Replicate 2 (MCC26 cells (VN-MCC); follow-up screen, MCC26, replicate 2): 450.2 | Area under the dose-response curve (AUC) MCC26 Replicate 3 (MCC26 cells (VN-MCC); follow-up screen, MCC26, replicate 3): 451.9 | VN-MCC_Avg_AUC ([2]; NPC library): 437.803 | Control-VN-MCC [2, 12]: 3.833 | WAGA_AUC (WAGA cells (VP-MCC); [13]): 394.525 | Area under the dose-response curve (AUC) WAGA Replicate 1 (WAGA cells (VP-MCC); follow-up screen, WAGA, replicate 1): 469.4 | Area under the dose-response curve (AUC) WAGA Replicate 2 (WAGA cells (VP-MCC); follow-up screen, WAGA, replicate 2): 402.6 | Area under the dose-response curve (AUC) WAGA Replicate 3 (WAGA cells (VP-MCC); follow-up screen, WAGA, replicate 3): 413.8 | MCC_Avg_AUC ([3]; NPC library): 409.645 | UISO_AUC (UISO cells (VN-MCC); [14]): 420.96 | Area under the dose-response curve (AUC) UISO Replicate 1 (UISO cells (VN-MCC); follow-up screen, UISO, replicate 1): 445.7 | Area under the dose-response curve (AUC) UISO Replicate 2 (UISO cells (VN-MCC); follow-up screen, UISO, replicate 2): 433.0 | Area under the dose-response curve (AUC) UISO Replicate 3 (UISO cells (VN-MCC); follow-up screen, UISO, replicate 3): 430.4 | Control-MCC [4, 15]: 31.9905 | NIH3T3_AUC (NIH-3T3 cells; [16]): 447.034 | VP-MCC_Avg_AUC ([5]; NPC library): 381.488 | Control-VP-MCC [5, 17]: 60.1479 | MCC13_AUC (MCC13 cells (VN-MCC); [18]): 435.637 | Area under the dose-response curve (AUC) MCC13 Replicate 1 (MCC13 cells (VN-MCC); follow-up screen, MCC13, replicate 1): 472.8 | Area under the dose-response curve (AUC) MCC13 Replicate 2 (MCC13 cells (VN-MCC); follow-up screen, MCC13, replicate 2): 478.9 | Area under the dose-response curve (AUC) MCC13 Replicate 3 (MCC13 cells (VN-MCC); follow-up screen, MCC13, replicate 3): 414.2 | CRL7250_AUC (CRL-7250 cells; [19]): 455.387 | MKL1_AUC (MKL-1 cells (VP-MCC); [20]): 383.35 | Area under the dose-response curve (AUC) MKL-1 Replicate 1 (MKL-1 cells (VP-MCC); follow-up screen, MKL-1, replicate 1): 414.7 | Area under the dose-response curve (AUC) MKL-1 Replicate 2 (MKL-1 cells (VP-MCC); follow-up screen, MKL-1, replicate 2): 411.0 | Area under the dose-response curve (AUC) MKL-1 Replicate 3 (MKL-1 cells (VP-MCC); follow-up screen, MKL-1, replicate 3): 407.6

O=C1CC2(CCCC2)CC(=O)N1CCCCN1CCN(c2ncccn2)CC1 [Buspirone]
HEK293T_AUC (HEK293T cells; [21]): 489.604 | MKL2_AUC (MKL-2 cells (VP-MCC); [22]): 407.552 | Control_Avg_AUC ([1]; NPC library): 487.669 | HACAT_AUC (HACAT cells; [21]): 483.772 | MCC26_AUC (MCC26 cells (VN-MCC); [22]): 427.549 | Control-VN-MCC ([2]; NPC library, Control AUC minus VN-MCC AUC (therapeutic window)): 50.1753 | VN-MCC_Avg_AUC ([2]; NPC library): 437.494 | WAGA_AUC (WAGA cells (VP-MCC); [22]): 446.274 | MCC_Avg_AUC ([3]; NPC library): 437.234 | UISO_AUC (UISO cells (VN-MCC); [22]): 435.953 | Control-MCC ([4]; NPC library, Control AUC minus MCC AUC (therapeutic window)): 50.4353 | NIH3T3_AUC (NIH-3T3 cells; [21]): 490.08 | Control-VP-MCC ([5]; NPC library, Control AUC minus VP-MCC AUC (therapeutic window)): 50.6954 | VP-MCC_Avg_AUC ([5]; NPC library): 436.974 | MCC13_AUC (MCC13 cells (VN-MCC); [22]): 448.981 | CRL7250_AUC (CRL-7250 cells; [21]): 487.221 | MKL1_AUC (MKL-1 cells (VP-MCC); [22]): 457.095
